In patent publication US11534408B2, “Microcapsules and methods of using the same” (priority 2018, dated 2022):

Tested on: Pseudomonas aeruginosa strain PAO1
Assay: Diffusion of antibiotic molecules through the membrane of PAO1 nanoculture capsules
Assay type: cell-based
Description: FIGS. 9A-9C provide representative brightfield images of the presently disclosed nanoculture capsules. Pseudomonas aeruginosa PAO1 strain was used as the bacterial inoculum for the inner phase of the capsules. Antibiotics, including tobramycin and tetracycline, were introduced 24 hours after encapsulation. (9A) Untreated PAO1 nanoculture after 24 hours. (9B) PAO1 nanoculture treated with 50 ug/ml tobramycin. (9C) PAO1 nanoculture treated with 50 ug/ml tetracycline.
The presently disclosed polymer was used to investigate the diffusion of antibiotic molecules through the membrane. Pseudomonas aeruginosa strain PAO1 was used as the bacterial inoculum for the inner phase of the nanoculture capsules. Antibiotics, including tobramycin and tetracycline, to which the PAO1 were sensitive, were introduced 24 hours after encapsulation. A 24-hour incubation period allowed for the confluent growth of PAO1. […] Microcapsules used in FIGS. 9A-9C were generated by using (H:V)=(0.6:1) with 3 ppm Pt catalyst and 0% DMAA. The generated microcapsules were heat treated for 5 minutes at 70° C. immediately after encapsulation. Following heat treatment, capsules were incubated at 37° C. for 24 hours.

CN(C)[C@@H]1C(O)=C(C(N)=O)C(=O)[C@@]2(O)C(O)=C3C(=O)c4c(O)cccc4[C@@](C)(O)[C@H]3C[C@@H]12 [tetracycline]
Ability to permeate and diffuse through the membrane (inferred from PAO1 killing at 50 ug/ml, membrane (H:V)=(0.6:1), 3 ppm Pt, 0% DMAA): able to diffuse through the membrane

NC[C@H]1O[C@H](O[C@H]2[C@H](O)[C@@H](O[C@H]3O[C@H](CO)[C@@H](O)[C@H](N)[C@H]3O)[C@H](N)C[C@@H]2N)[C@H](N)C[C@@H]1O [tobramycin]
PAO1 cells in nanoculture capsules after antibiotic treatment (50 ug/ml antibiotic introduced 24 hours after encapsulation, capsules (H:V)=(0.6:1), 3 ppm Pt catalyst, 0% DMAA, heat treated 5 minutes at 70° C.): persisted | Ability to permeate and diffuse through the membrane (not told): unable to permeate and diffuse through the membrane
